Data from article PMC4356362, “Interaction of the amyloid precursor protein-like protein 1 (APLP1) E2 domain with heparan sulfate involves two distinct binding modes” (Acta Crystallographica Section D: Biological Crystallography, 2015).

Columns and labels:
APLP1 E2 [1] = biological target: T1, APLP1 E2 (Homo sapiens, UniProt P51693); assay: thermal denaturation (Thermofluor, SYPRO Orange); assay type: binding; details: 10 µM protein, 50 µM oligosaccharide, phosphate pH 5.7, 100 mM NaCl; reference Tm without ligand 43.6 ± 0.2 °C
T1 construct: E2 domain, residues 290-495, secreted from Pichia pastoris (pPICZalpha), N-glycosylated fraction removed; dimeric arrangement in crystal
T1 sequence (P51693 290-495): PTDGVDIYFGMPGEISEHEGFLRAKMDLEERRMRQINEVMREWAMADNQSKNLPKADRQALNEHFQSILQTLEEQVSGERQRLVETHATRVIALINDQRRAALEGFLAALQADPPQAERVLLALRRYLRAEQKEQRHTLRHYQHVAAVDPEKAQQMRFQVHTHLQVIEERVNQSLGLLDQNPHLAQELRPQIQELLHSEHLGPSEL

APLP1 E2 [2] = biological target: T1, APLP1 E2; assay: X-ray co-crystal structure, […] Å; details: equimolar 0.5 mM; pH 6.1-6.3; two binding modes: chain a nonreducing end at dimer centre, chain b on one protomer
[3] = biological target: the molecule itself; assay: crystal structure; apo APLP1 E2, orthorhombic crystal form (P212121), 2.6 Å; crystals grown at 20°C in 0.1 M sodium citrate pH 5.6, 0.9 M (NH4)H2PO4, 25% glycerol; two molecules in the asymmetric unit

Molecule: O=C(O)C1=C[C@H](O)[C@@H](OS(=O)(=O)O)[C@H](O[C@H]2[C@H](O)[C@@H](NS(=O)(=O)O)[C@@H](O[C@H]3[C@H](O)[C@@H](OS(=O)(=O)O)[C@H](O[C@H]4[C@H](O)[C@@H](NS(=O)(=O)O)[C@@H](O[C@H]5[C@H](O)[C@@H](OS(=O)(=O)O)[C@H](O[C@H]6[C@H](O)[C@@H](NS(=O)(=O)O)[C@@H](O[C@H]7[C@H](O)[C@@H](OS(=O)(=O)O)[C@H](O[C@H]8[C@H](O)[C@@H](NS(=O)(=O)O)C(O)O[C@@H]8COS(=O)(=O)O)O[C@H]7C(=O)O)O[C@@H]6COS(=O)(=O)O)O[C@H]5C(=O)O)O[C@@H]4COS(=O)(=O)O)O[C@H]3C(=O)O)O[C@@H]2COS(=O)(=O)O)O1 (stereo partly drawn) [dp8, heparin octasaccharide]
- Tm (APLP1 E2 [1]): 53.5 ± 0.5 °C

Molecule: O=C(O)C1=C[C@H](O)[C@@H](OS(=O)(=O)O)[C@H](O[C@H]2[C@H](O)[C@@H](NS(=O)(=O)O)[C@@H](O[C@H]3[C@H](O)[C@@H](OS(=O)(=O)O)[C@H](O[C@H]4[C@H](O)[C@@H](NS(=O)(=O)O)[C@@H](O[C@H]5[C@H](O)[C@@H](OS(=O)(=O)O)[C@H](O[C@H]6[C@H](O)[C@@H](NS(=O)(=O)O)[C@@H](O[C@H]7[C@H](O)[C@@H](OS(=O)(=O)O)[C@H](O[C@H]8[C@H](O)[C@@H](NS(=O)(=O)O)[C@@H](O[C@H]9[C@H](O)[C@@H](OS(=O)(=O)O)[C@H](O[C@H]%10[C@H](O)[C@@H](NS(=O)(=O)O)[C@@H](O[C@H]%11[C@H](O)[C@@H](OS(=O)(=O)O)[C@H](O[C@H]%12[C@H](O)[C@@H](NS(=O)(=O)O)C(O)O[C@@H]%12COS(=O)(=O)O)O[C@H]%11C(=O)O)O[C@@H]%10COS(=O)(=O)O)O[C@H]9C(=O)O)O[C@@H]8COS(=O)(=O)O)O[C@H]7C(=O)O)O[C@@H]6COS(=O)(=O)O)O[C@H]5C(=O)O)O[C@@H]4COS(=O)(=O)O)O[C@H]3C(=O)O)O[C@@H]2COS(=O)(=O)O)O1 (stereo partly drawn) [dp12, heparin dodecasaccharide]
- Tm (APLP1 E2 [1]): 55.6 ± 0.5 °C
- X-ray co-crystal structure, 2.5 Å (APLP1 E2 [2]): coordinates of APLP1 E2 in complex with heparin

Molecule: O=C(O)C1=C[C@H](O)[C@@H](OS(=O)(=O)O)[C@H](O[C@H]2[C@H](O)[C@@H](NS(=O)(=O)O)[C@@H](O[C@H]3[C@H](O)[C@@H](OS(=O)(=O)O)[C@H](O[C@H]4[C@H](O)[C@@H](NS(=O)(=O)O)[C@@H](O[C@H]5[C@H](O)[C@@H](OS(=O)(=O)O)[C@H](O[C@H]6[C@H](O)[C@@H](NS(=O)(=O)O)[C@@H](O[C@H]7[C@H](O)[C@@H](OS(=O)(=O)O)[C@H](O[C@H]8[C@H](O)[C@@H](NS(=O)(=O)O)[C@@H](O[C@H]9[C@H](O)[C@@H](OS(=O)(=O)O)[C@H](O[C@H]%10[C@H](O)[C@@H](NS(=O)(=O)O)[C@@H](O[C@H]%11[C@H](O)[C@@H](OS(=O)(=O)O)[C@H](O[C@H]%12[C@H](O)[C@@H](NS(=O)(=O)O)[C@@H](O[C@H]%13[C@H](O)[C@@H](OS(=O)(=O)O)[C@H](O[C@H]%14[C@H](O)[C@@H](NS(=O)(=O)O)[C@@H](O[C@H]%15[C@H](O)[C@@H](OS(=O)(=O)O)[C@H](O[C@H]%16[C@H](O)[C@@H](NS(=O)(=O)O)C(O)O[C@@H]%16COS(=O)(=O)O)O[C@H]%15C(=O)O)O[C@@H]%14COS(=O)(=O)O)O[C@H]%13C(=O)O)O[C@@H]%12COS(=O)(=O)O)O[C@H]%11C(=O)O)O[C@@H]%10COS(=O)(=O)O)O[C@H]9C(=O)O)O[C@@H]8COS(=O)(=O)O)O[C@H]7C(=O)O)O[C@@H]6COS(=O)(=O)O)O[C@H]5C(=O)O)O[C@@H]4COS(=O)(=O)O)O[C@H]3C(=O)O)O[C@@H]2COS(=O)(=O)O)O1 (stereo partly drawn) [dp16]
- Tm (APLP1 E2 [1]): a slight stability increase of APLP1 was induced by chain lengths beyond eight sugar rings

Molecule: O=C(O)C1=C[C@H](O)[C@@H](OS(=O)(=O)O)[C@H](O[C@H]2[C@H](O)[C@@H](NS(=O)(=O)O)[C@@H](O[C@H]3[C@H](O)[C@@H](OS(=O)(=O)O)[C@H](O[C@H]4[C@H](O)[C@@H](NS(=O)(=O)O)C(O)O[C@@H]4COS(=O)(=O)O)O[C@H]3C(=O)O)O[C@@H]2COS(=O)(=O)O)O1 (stereo partly drawn) [dp4, heparin tetrasaccharide]
- Tm (APLP1 E2 [1]): 46.9 ± 0.3 °C

B1: APLP1 E2 domain (amyloid precursor protein-like protein 1, E2 domain) (domain or fragment, human, UniProt P51693 290-495, looked up)
chain: T1 sequence (P51693 290-495)
notes: E2 domain of human amyloid precursor protein-like protein 1 (APLP1), amino acids 290-495; Nonglycosylated fraction used; Two protomers in the asymmetric unit of both crystal forms; also called E2 domain of APLP1; apo APLP1 E2
- binding result [3]: binds
